Several values for one entry are separate records, joined by “and”; a condition that tells them apart may be missing. Equal values may be shown once.
Experiments:
[1] = cited from earlier work
navicular disease [2] = experiment: Long term efficacy: follow up evaluation of soundness after termination of the 6 week treatment; type: in vivo, horse
Description: Ten horses received a further follow up evaluation after termination of the 6 week treatment period. The horses are listed below, along with the date of visit (weeks post-initiation of study) and the soundness evaluation.

navicular disease [3] = experiment: Efficacy of oral pentoxifylline in the treatment of navicular disease in horses (6 week lameness study); type: in vivo, horse
Description: As previously mentioned, it is preferred to administer daily doses of pentoxifylline for a prescribed period of time in order to alleviate lameness caused by navicular disease. […] It is preferred to administer the daily doses tid. In this regard, powder, tablet or capsule formulations, containing between 2-10 gm of pentoxifylline should be administered for this purpose. As previously indicated, the amount of daily doses is dependent on a variety of factors, including the size of the horse being treated.
The purpose of the following study was to assess the efficacy of pentoxifylline in the treatment of navicular disease in horses; to establish an appropriate dosage and treatment interval, and to identify adverse effects from treatment.
Twenty-seven horses entered the study between September 1985 and March 1986.
Pentoxifylline was supplied as an oral powder prepared in individual plastic vials of 2 gm Pentoxifylline mixed with 4 gm icing sugar, to ensure palatability.
Diagnosis of navicular disease was made using the following criteria:
1) history - including clinical and previous treatment history.
lameness observed at walk and while lunging to the left and to the right.
3) diagnostic posterior digital nerve block
horses not sound following bilateral desensitization of the posterior digital nerves were not admitted into the study
4) radiographic examination of confirmation of disease as noted by classical navicular lesions, on a minimum of three views
Treatment was administered daily for 42 days.
Horses were characterized as either severely lame, moderately lame, or slightly lame, as follows:
Treatment response was classified as excellent, good, fair, or poor.
Soundness was subjectively rated by the veterinarian on a percent basis. Percent soundness at the study's onset was subtracted from percent soundness at the study's conclusion, and this difference was plotted as a histogram (graph 2), to show the magnitude of improvement with the 6 week course of treatment. At week 4 there was an average of 57% improvement. For instance, horse number 3 was rated as 25% sound at the onset of the study, and 100% sound after six weeks, yielding an improvement of 75%.

[4] = in vivo
Description: (§1) Follow-up observations occurred weekly during the six week treatment period, and for a final time approximately 4 weeks after the 6 week treatment period was over. The follow-up visits consisted of a lameness evaluation on the lunge line, at the walk and at rest. Owners/trainers were asked to report any side effects observed that may or may not have been related to Pentoxifylline therapy, and any other problems that had arisen during the week, concurrent medications administered for other causes, and the horse's progress while being exercised. Blood samples were drawn prior to first treatment, at 3 weeks, and at 6 weeks for routine hematological and clinical chemistry profiles. Samples were drawn prior to lameness examination after the horse had been resting quietly in the stall. Most samples were drawn early in the afternoon, and were immediately submitted to Metro Animal Laboratories, Bloor Street, Toronto.

[5] = Side effects during the study
Description: as §1

[6] = duration of lameness 2 years-5 years (5)
[7] = duration of lameness 5 years (4)
[8] = duration of lameness 6 months (7)
[9] = duration of lameness <6 months, >2 years (11)
[10] = lameness at onset moderate (11)

CC(=O)CCCCn1c(=O)c2c(ncn2C)n(C)c1=O [pentoxifylline, 1-(5-oxohexyl)-3,7-dimethylxanthine]
Sweating in humans ([1]; human side effect): occasional human side effect
lag period to maximum response in man ([1]; lag in horses said to be similar): two week period
horses judged to be sore again after cessation of treatment (navicular disease [2]; 2 weeks after cessation, Innovator, Capital Gains, Ensign): Three horses
follow up soundness (navicular disease [2]; horse 1 Jake, 9 weeks post-initiation): 80 % sound
follow up soundness (navicular disease [2]; horse 1 Jake, 11 weeks, being ridden): still sound
follow up soundness (navicular disease [2]; horse 1 Jake, 20 weeks, being ridden): 100 % sound
Status (navicular disease [2]; horse 1 Jake, greater than 6 weeks): Improved
Status (navicular disease [2]; horse 2 Lucky Lion, 2 gm once per day maintenance at 10 weeks): Improved
Status (navicular disease [2]; horse 3 Remeny): Improved
follow up soundness (navicular disease [2]; horse 3 Remeny, 12 weeks): hunting sound
follow up soundness (navicular disease [2]; horse 3 Remeny, 18 weeks): very sound
Status (navicular disease [2]; horse 4 Ensign): Same
follow up soundness (navicular disease [2]; horse 4 Ensign, 8 weeks): sore RF
follow up soundness (navicular disease [2]; horse 4 Ensign, 11 weeks, when given 2 gm/day): sound again
Status (navicular disease [2]; horse 5 Wessex): Improved
follow up soundness (navicular disease [2]; horse 5 Wessex, 15 weeks, compared with end of the 6 weeks): sounder than
Status (navicular disease [2]; horse 11 Capital Gains): Improved
follow up soundness (navicular disease [2]; horse 11 Capital Gains, 8 weeks, without drug): less sound
Status (navicular disease [2]; horse 13 Peaches 'N Cream): Same
follow up soundness (navicular disease [2]; horse 13 Peaches 'N Cream, 11 weeks, compared with when entered study): as sound
Status (navicular disease [2]; horse 14 Cash in McCue): Improved
follow up soundness (navicular disease [2]; horse 14 Cash in McCue, 12 weeks): 100 % sound
Status (navicular disease [2]; horse 16 B. E. Skipper): Improved
follow up soundness in field (navicular disease [2]; horse 16 B. E. Skipper, 11 weeks, looks sound in field): 100 % sound
follow up soundness (navicular disease [2]; horse 16 B. E. Skipper, 11 weeks, riding again): 90 % sounder
Status (navicular disease [2]; horse 20 Innovator): Worse
follow up soundness to LT (navicular disease [2]; horse 20 Innovator, 7 weeks): 80 % sounder
follow up soundness to RT (navicular disease [2]; horse 20 Innovator, 7 weeks): 90 % sounder
follow up lameness (navicular disease [2]; horse 20 Innovator, 9 weeks, compared with before treatment): as lame at 9 weeks as he had been prior to treatment
horses considered sounder than at the end of the 6 week treatment period (navicular disease [2]; of 10 horses followed up): Seven of these 10 horses
pattern when drug administration ceased (navicular disease [2]; other horses): regressed rapidly when treatment ended
pattern when drug administration ceased (navicular disease [2]; some cases): maintained the improvement noted at 6 weeks
response over time (navicular disease [3]; 1 week): evident at 1 week
response over time (navicular disease [3]; 2 and 3 weeks): marked at 2 and 3 weeks
response at dose (navicular disease [3]; 2 gm bid): not considered consistently optimal
response at dose (navicular disease [3]; 6 gram dosage divided tid): achieved the best results
response over time (navicular disease [3]; between 4 and 6 weeks): did not regress between 4 and 6 weeks
excellent responses, % of horses (navicular disease [3]; cases of greater than 5 years duration, 4 horses): 50%
excellent responses, number of horses (navicular disease [3]; cases of greater than 5 years duration, out of 4 horses): 2 horses
effect on navicular lameness (navicular disease [3]; daily doses between 6 gm and 30 gm for 4-6 weeks): effective in completely eliminating navicular lameness
Response excellent, number of horses (navicular disease [3]; [6]): 2 horses
Response good, number of horses (navicular disease [3]; [6]): 1 horses
Response poor, number of horses (navicular disease [3]; [6]): 1 horses
Response excellent, number of horses (navicular disease [3]; [7]): 2 horses
Response fair, number of horses (navicular disease [3]; [7]): 1 horses
Response good, number of horses (navicular disease [3]; [7]): 1 horses
Response excellent, number of horses (navicular disease [3]; [8]): 4 horses
Response good, number of horses (navicular disease [3]; [8]): 1 horses
Response poor, number of horses (navicular disease [3]; [8]): 1 horses
Response excellent, number of horses (navicular disease [3]; [9]): 7 horses
Response fair, number of horses (navicular disease [3]; [9]): 1 horses
Response good, number of horses (navicular disease [3]; [9]): 2 horses
Response poor, number of horses (navicular disease [3]; [9]): 1 horses
excellent responses, % of horses (navicular disease [3]; duration of lameness up to two years, 18 horses): 61%
excellent responses, number of horses (navicular disease [3]; duration of lameness up to two years, out of 18 horses): 11 horses
treatment response (navicular disease [3]; horse #9 (It's Casual), six week course, previous bilateral neurectomy): never showed significant improvement
treatment assessment (navicular disease [3]; horse #15 (Cheska)): refractory to pentoxifylline treatment
evaluated sounder (navicular disease [3]; horse #15 (Cheska), end of 4 weeks, dosage increased to 2 gm tid): 90%
treatment response (navicular disease [3]; horse #15 (Cheska), first 3 weeks, 2 gm bid, drug not administered properly): virtually no response
lameness (navicular disease [3]; horse #15 (Cheska), weeks 5 and 6, after jumping in 4th week): as lame as at the beginning
treatment assessment (navicular disease [3]; horse #18 (Molson), irregular treatment): refractory to treatment
treatment response (navicular disease [3]; horse #18 (Molson), week 3 and week 5): marked improvement
lameness (navicular disease [3]; horse #18 (Molson), week 6, inconsistent drug administration): as lame as at the onset of the study
percent soundness after six weeks (navicular disease [3]; horse number 3, 25% sound at onset): 100%
improvement in percent soundness (navicular disease [3]; horse number 3, six weeks vs onset): 75%
response by lameness at onset (navicular disease [3]; horses with moderate lameness): preponderance of excellent responses
Response excellent, number of horses (navicular disease [3]; [10]): 7 horses
Response fair, number of horses (navicular disease [3]; [10]): 2 horses
Response good, number of horses (navicular disease [3]; [10]): 1 horses
Response good, number of horses (navicular disease [3]; lameness at onset severe (8)): 1 horses
Response poor, number of horses (navicular disease [3]; lameness at onset severe (8)): 3 horses
Response good, number of horses (navicular disease [3]; lameness at onset slight (2)): 2 horses
Response excellent, number of horses (navicular disease [3]; lameness at onset slight-moderate (6)): 6 horses
Response fair, number of horses (navicular disease [3]; n = 25, oral, 42 days): 2 horses
Response good, number of horses (navicular disease [3]; n = 25, oral, 42 days): 5 horses
Response poor, number of horses (navicular disease [3]; n = 25, oral, 42 days): 3 horses
Response excellent, number of horses (navicular disease [3]; n = 25, oral, 42 days, 2 gm bid or tid): 15 horses
Response excellent, % of horses (navicular disease [3]; oral, 4 to 6 week treatment): 63%
Response fair, % of horses (navicular disease [3]; oral, 4 to 6 week treatment): 8%
Response good, % of horses (navicular disease [3]; oral, 4 to 6 week treatment): 20% and 17%
Response poor, % of horses (navicular disease [3]; oral, 42 days): 13%
time of maximal response (navicular disease [3]; response over time, graph 1): 4 weeks
effect on lameness of navicular disease (navicular disease [3]; varying severity and duration): effective in alleviating the lameness
average improvement in percent soundness (navicular disease [3]; week 4, subjective rating by veterinarian, difference from onset): 57%
Baso mean [4]: 0.5%
Cl mean [4]: 98.9 mmol/L
Clinical chemistry values vs equine reference range [4]: within the reference range for the equine species
Hematology values vs normal limits [4]: within normal limits throughout the study
Mean clinical chemistry values vs baseline [4]: did not differ significantly
Number of horses with platelets increased since baseline [4]: 20 horses
Platelets increase [4]: 4,520
clinical effect on blood chemistry [4]: no clinical effect
horses with lower platelet count at week 6 than at week 3 [4]: 13 horses
Sweating episodes ([5]; horse 14 Cash in McCue, after 2 weeks): 5 episodes
Stocked up, number of horses ([5]; horse 15 Cheska, RF at week 6): 1 horses
Colic, number of horses ([5]; horse 23 Greek Anthem, between weeks 2 and 3, previous history of colic): 1 horses
Sweating, number of horses ([5]; horses 14 and 20): 2 horses
Colic, relation to drug ([5]; in vivo): unrelated
Stocked up, relation to drug ([5]; in vivo): unrelated
harmful side effects ([5]; in vivo): have not been identified
horses with unusual occurrences ([5]; in vivo): Four horses
instances judged drug-related side effect ([5]; throughout the study): 1

— US5077296A, “Method for treating equine navicular disease with pentoxifylline, and composition containing pentoxifylline for administrating to horses” (priority 1987, dated 1991)
